Data taken from ChEMBL document CHEMBL1268945, “Sequential cytotoxicity: a theory examined using a series of 3,5-bis(benzylidene)-1-diethylphosphono-4-oxopiperidines and related phosphonic acids” (Bioorg Med Chem Lett, 2010).

What was measured:
HL-60 [1] = test: Cytotoxicity against human HL60 cells; assay type: functional
HL-60 [2] = test: Selectivity index, ratio of CC50 for normal cells to CC50 for human HL60 cells; assay type: functional
HSC-2 [3] = test: Cytotoxicity against human HSC2 cells; assay type: functional
HSC-2 [4] = test: Selectivity index, ratio of CC50 for normal cells to CC50 for human HSC2 cells; assay type: functional
HSC-3 [5] = test: Cytotoxicity against human HSC3 cells; assay type: functional
HSC-3 [6] = test: Selectivity index, ratio of CC50 for normal cells to CC50 for human HSC3 cells; assay type: functional
HSC-4 [7] = test: Cytotoxicity against human HSC4 cells; assay type: functional
HSC-4 [8] = test: Selectivity index, ratio of CC50 for normal cells to CC50 for human HSC4 cells; assay type: functional
[9] = Cytotoxicity against human HGF cells; assay type: cell-based
[10] = Cytotoxicity against human HPC cells; assay type: cell-based
[11] = Cytotoxicity against human HPLF cells; assay type: cell-based

Row | SMILES | CC50 (HL-60 [1]) | Selectivity Index (HL-60 [2]) | CC50 (HSC-2 [3]) | Selectivity Index (HSC-2 [4]) | CC50 (HSC-3 [5]) | Selectivity Index (HSC-3 [6]) | CC50 (HSC-4 [7]) | Selectivity Index (HSC-4 [8]) | CC50 [9] | CC50 [10] | CC50 [11]
1 | O=C1/C(=C/c2ccc(Cl)cc2)CN(P(=O)(O)O)C/C1=C\c1ccc(Cl)cc1 | 460 nM | 9.8 | 420 nM | 11 | 410 nM | 11 | 720 nM | 6.3 | 5900 nM | 2600 nM | 5100 nM
2 | CCOP(=O)(OCC)N1C/C(=C\c2ccc(Cl)cc2)C(=O)/C(=C/c2ccc(Cl)cc2)C1 | 600 nM | 6.7 | 1500 nM | 2.7 | 2000 nM | 2 | 640 nM | 6.3 | 4300 nM | 2800 nM | 4800 nM
3 | CCOP(=O)(OCC)N1C/C(=C\c2cccc([N+](=O)[O-])c2)C(=O)/C(=C/c2cccc([N+](=O)[O-])c2)C1 | 50 nM | 54 | 760 nM | 3.3 | 740 nM | 3.4 | 260 nM | 9.6 | 2200 nM | 1500 nM | 3900 nM
4 | CCOP(=O)(OCC)N1C/C(=C\c2ccc([N+](=O)[O-])cc2)C(=O)/C(=C/c2ccc([N+](=O)[O-])cc2)C1 | 140 nM | 17 | 330 nM | 7.3 | 380 nM | 6.3 | 720 nM | 3.3 | 3100 nM | 1900 nM | 2200 nM
5 | O=C1/C(=C/c2cccc([N+](=O)[O-])c2)CN(P(=O)(O)O)C/C1=C\c1cccc([N+](=O)[O-])c1 | 90 nM | 30 | 200 nM | 13 | 180 nM | 14 | 140 nM | 19 | 2300 nM | 2200 nM | 3300 nM
6 | CCOP(=O)(OCC)N1C/C(=C\c2ccc(C)cc2)C(=O)/C(=C/c2ccc(C)cc2)C1 | 3300 nM | 6.7 | 4900 nM | 4.5 | 4100 nM | 5.4 | 4600 nM | 4.8 | 28000 nM | 18000 nM | 21000 nM
7 | N[C@@H](Cc1ccc(N(CCCl)CCCl)cc1)C(=O)O [MELPHALAN] | 1400 nM | 150 | 8700 nM | 24 | 25000 nM | 8.4 | 32000 nM | 6.6 | 161000 nM | 269000 nM | 199000 nM
8 | O=C1/C(=C/c2ccc([N+](=O)[O-])cc2)CN(P(=O)(O)O)C/C1=C\c1ccc([N+](=O)[O-])cc1 | 140 nM | 21 | 180 nM | 17 | 230 nM | 13 | 130 nM | 23 | 4100 nM | 1600 nM | 3400 nM
9 | CCOP(=O)(OCC)N1C/C(=C\c2cc(OC)c(OC)c(OC)c2)C(=O)/C(=C/c2cc(OC)c(OC)c(OC)c2)C1 | 290 nM | 6.2 | 330 nM | 5.5 | 430 nM | 4.2 | 160 nM | 11 | 2000 nM | 1300 nM | 2200 nM
10 | COc1cc(/C=C2\CN(P(=O)(O)O)C/C(=C\c3cc(OC)c(OC)c(OC)c3)C2=O)cc(OC)c1OC | 60 nM | 12 | 130 nM | 6.2 | 270 nM | 3 | 120 nM | 6.7 | 880 nM | 590 nM | 1000 nM
11 | CCOP(=O)(OCC)N1C/C(=C\c2ccc(OC)c(OC)c2)C(=O)/C(=C/c2ccc(OC)c(OC)c2)C1 | 750 nM | 8.4 | 1700 nM | 3.7 | 1400 nM | 4.5 | 500 nM | 13 | 7400 nM | 6200 nM | 5300 nM
12 | CCOP(=O)(OCC)N1C/C(=C\c2ccccc2[N+](=O)[O-])C(=O)/C(=C/c2ccccc2[N+](=O)[O-])C1 | 380 nM | 37 | 1600 nM | 8.8 | 1200 nM | 12 | 1800 nM | 7.8 | 18000 nM | 8300 nM | 15000 nM
13 | COc1ccc(/C=C2\CN(P(=O)(O)O)C/C(=C\c3ccc(OC)c(OC)c3)C2=O)cc1OC | 260 nM | 8.1 | 400 nM | 5.3 | 590 nM | 3.6 | 420 nM | 5 | 2600 nM | 1300 nM | 2500 nM
14 | COc1ccc(/C=C2\CN(P(=O)(O)O)C/C(=C\c3ccc(OC)cc3)C2=O)cc1 | 5600 nM | 12 | 1700 nM | 40 | 2200 nM | 31 | 3900 nM | 17 | 107000 nM | 54000 nM | 44000 nM
15 | Cc1ccc(/C=C2\CN(P(=O)(O)O)C/C(=C\c3ccc(C)cc3)C2=O)cc1 | 1100 nM | 4.6 | 760 nM | 6.7 | 950 nM | 5.4 | 960 nM | 5.3 | 5900 nM | 3300 nM | 6100 nM
16 | O=C1/C(=C/c2ccccc2[N+](=O)[O-])CN(P(=O)(O)O)C/C1=C\c1ccccc1[N+](=O)[O-] | 70 nM | 30 | 170 nM | 13 | 320 nM | 6.9 | 100 nM | 22 | 1400 nM | 2100 nM | 3000 nM
17 | O=C1/C(=C/c2ccccc2)CN(P(=O)(O)O)C/C1=C\c1ccccc1 | 460 nM | 12 | 770 nM | 7.4 | 980 nM | 5.8 | 570 nM | 10 | 6900 nM | 3200 nM | 7000 nM
18 | CCOP(=O)(OCC)N1C/C(=C\c2ccccc2)C(=O)/C(=C/c2ccccc2)C1 | 610 nM | 15 | 2400 nM | 3.8 | 2500 nM | 3.7 | 1100 nM | 8.4 | 11000 nM | 6500 nM | 10000 nM
